According to paper PMC10060569 (Frontiers in Pharmacology, 2023):

Target: T1, L191A/S15V-hP2X3R (Homo sapiens, UniProt P56373, L191A/S15V)
T1 construct: expressed in transfected cells; host or cells: Xenopus laevis oocytes (cRNA injection)
T1 sequence (P56373 1-397 S15V/L191A): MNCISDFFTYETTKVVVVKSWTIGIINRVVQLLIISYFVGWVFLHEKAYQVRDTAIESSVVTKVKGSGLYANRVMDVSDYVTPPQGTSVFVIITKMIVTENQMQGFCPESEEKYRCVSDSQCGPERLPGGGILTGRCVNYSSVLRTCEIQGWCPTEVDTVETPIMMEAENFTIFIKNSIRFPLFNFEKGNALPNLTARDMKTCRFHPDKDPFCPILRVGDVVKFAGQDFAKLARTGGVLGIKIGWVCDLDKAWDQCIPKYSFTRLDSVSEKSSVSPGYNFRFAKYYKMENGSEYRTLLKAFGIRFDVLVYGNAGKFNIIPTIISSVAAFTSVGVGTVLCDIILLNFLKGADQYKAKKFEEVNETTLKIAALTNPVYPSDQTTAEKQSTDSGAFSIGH
Test: TEVC of ATP-induced currents, L191A/S15V-hP2X3R mutant in X. laevis oocytes
Type: cell-based
Protocol: Ion currents mediated by P2X receptors were evoked by the indicated concentration of ATP or α,β-meATP and were recorded 1 or 2 days after cRNA injection at ambient temperature at a holding potential of −60 mV by two-electrode voltage clamp (TEVC) as previously described ([Hausmann et al., 2006]). Calcium-free ORi^− solution (90 mM NaCl, 1 mM KCl, 2 mM MgCl2, 10 mM HEPES, pH 7.4) was used to avoid bias due to calcium-activated chloride channels (CaCC) endogenously expressed in X. laevis oocytes ([Miledi, 1982]; [Methfessel et al., 1986]). For recordings of wt-hP2X7R, the composition of the ORi^− solution was modified according to protocols described previously and contained 100 mM NaCl, 2.5 mM KCl, 1 mM MgCl2, 5 mM HEPES, pH 7.4 ([Klapperstück et al., 2000]). The oocytes were continuously superfused with ORi^− by gravity flow (5–10 ml/min). The agonists ATP or α,β-meATP and the investigated NSAIDs were diluted in ORi^− on the day of the recording. The following agonist concentrations were used for the different P2X subtypes: 1 μM ATP (hP2X1R mutant, hP2X3R, rP2X3R, S^15V-hP2X3R, and S^15V-rP2X3R); 10 μM ATP (hP2X2R and hP2X4R); 300 μM free ATP^4- (hP2X7R); and 1 μM α,β-meATP (hP2X2/3R). […]
In the case of fast-desensitizing P2XR subtypes (P2X1R and P2X3R), ATP is applied five times in repetition, and the ATP-induced current amplitude in the presence (after pre-incubation) of the antagonist (fourth application) is compared to the arithmetic mean of flanking control ATP-induced current amplitudes in the absence of the antagonist (third and fifth ATP application). […] The correction factor was calculated as the ratio of the fourth ATP-induced current amplitude to the third amplitude (Eq. 3) when the experiment was performed in the absence of the antagonist. […] Since the magnitude of the run-down varies from day to day and batch to batch of oocytes, the correction factor was determined on each day of the experiments and was calculated as the arithmetic mean of several recordings (at least 3–5 and on average 5) on each day. […]

O=C(O)Cc1ccccc1Nc1c(Cl)cccc1Cl [Diclofenac, diclofenac]
inhibition at 3 µM (read-out: % inhibition of 10 µM ATP-induced currents by 3 µM diclofenac): 7.7% | inhibition at 10 µM (read-out: % inhibition of 10 µM ATP-induced currents by 10 µM diclofenac): 18.4% | inhibition at 30 µM (read-out: % inhibition of 10 µM ATP-induced currents by 30 µM diclofenac): 37.3%
